Laboratory results as given in US5488060A, “Substituted thiadiazoles, compositions containing them and their use as antimicrobial and marine antifouling agents” (The Dow Chemical Company, priority 1994, dated 1996).
Values after ≈ are worked out from the molar mass of the structure shown. Where two headings read alike, the source gives them in different places.

Experiments:
Assay type in all cases: cell-based
Bacillus subtilis (Bs) = assay: Minimum inhibitory concentration (MIC) in nutrient agar, Bacillus subtilis
Summary of the method: (§1)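 Bacteria were grown 24 h at 30° C in nutrient broth with shaking, then diluted to 10^8 CFU/mL. These suspensions were stamped onto dried nutrient agar plates, neutral (pH 6.8) and alkaline (pH 8.2), that held compound at final 500–1.0 ppm. The plates were incubated 48 h at 30° C.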

[1] = tested on: Enterobacter aerogenes (Ea); assay: Minimum inhibitory concentration (MIC) in nutrient agar, Enterobacter aerogenes; settings: Klebsiella aerogenes, 48 h
Summary of the method: as §1

Candida albicans (Ca) = assay: Minimum inhibitory concentration (MIC) in malt yeast agar, Candida albicans
Summary of the method: (§2)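 Malt yeast agar pH 5.5 + cpd (from 1% soln in acetone/water) at final 500–zero ppm, poured at 48 °C, dried 24 h. Inoculum: 7-day 30 °C slants suspended in saline/octylphenoxy polyethoxy ethanol, diluted 1:9, replicator-spotted. Incubated 30 °C; read 48 h yeast, 72 h fungi.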

Escherichia coli (Ec) = assay: Minimum inhibitory concentration (MIC) in nutrient agar, Escherichia coli
Summary of the method: as §1

[2] = tested on: Pseudomonas aeruginosa (Pa); assay: Minimum inhibitory concentration (MIC) in nutrient agar, Pseudomonas aeruginosa; settings: 30° C., 48 hours, read-out: Minimum Inhibitory Concentration, Pa
Summary of the method: as §1

Proteus vulgaris (Pv) = assay: Minimum inhibitory concentration (MIC) in nutrient agar, Proteus vulgaris; settings: 48 h
Summary of the method: as §1

Trichoderma viride (Tv) = assay: Minimum inhibitory concentration (MIC) in malt yeast agar, Trichoderma viride
Summary of the method: (§3)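 Plates of pH 5.5 malt yeast agar carried test compound dispersed from a one percent acetone–water solution, final 500 to zero ppm. After diluted slant-culture suspensions were applied, plates were kept at 30 °C and examined at 72 h for fungi, 48 h for yeast.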

[3] = tested on: Pseudomonas aeruginosa (PRD-10); assay: Minimum inhibitory concentration (MIC) in nutrient agar, Pseudomonas aeruginosa PRD-10; settings: 48 h
Summary of the method: as §1

[4] = tested on: Klebsiella pneumoniae (Kp); assay: Minimum inhibitory concentration (MIC) in nutrient agar, Klebsiella pneumoniae
Summary of the method: as §1

[5] = tested on: Saccharomyces cerevisiae (Sc); assay: Minimum inhibitory concentration (MIC) in malt yeast agar, Saccharomyces cerevisiae; settings: pH 5.5, malt yeast agar, 30° C., 48 hours for yeast, read-out: Minimum Inhibitory Concentration, SC
Summary of the method: as §2

[6] = tested on: Aureobasidium pullulan (Ap); assay: Minimum inhibitory concentration (MIC) in malt yeast agar, Aureobasidium pullulan; settings: pH 5.5; malt yeast agar, 30° C.; read-out: Minimum Inhibitory Concentration, Ap
Summary of the method: as §3

[7] = tested on: Penicillium chrysogenum (Pc); assay: Minimum inhibitory concentration (MIC) in malt yeast agar, Penicillium chrysogenum
Summary of the method: as §3

Fusarium oxysporum (Fo) = assay: Minimum inhibitory concentration (MIC) in malt yeast agar, Fusarium oxysporum
Summary of the method: as §3

[8] = tested on: Salmonella choleraesuis (Se); assay: Minimum inhibitory concentration (MIC) in nutrient agar, Salmonella choleraesuis; settings: Salmonella enterica, 48 h
Summary of the method: as §1

[9] = tested on: Staphylococcus aureus (Sa); assay: Minimum inhibitory concentration (MIC) in nutrient agar, Staphylococcus aureus
Summary of the method: as §1

Aspergillus niger (An) = assay: Minimum inhibitory concentration (MIC) in malt yeast agar, Aspergillus niger
Summary of the method: as §3

[10] = 48 h, pH 8.2, read-out: Minimum Inhibitory Concentration, Bs
[11] = pH 6.8, read-out: Minimum Inhibitory Concentration, Ea
[12] = pH 8.2, read-out: Minimum Inhibitory Concentration, Ea
[13] = 48 h, pH 5.5, read-out: Minimum Inhibitory Concentration, Ca
[14] = 48 h, pH 6.8, read-out: Minimum Inhibitory Concentration, Ec
[15] = 48 h, pH 8.2, read-out: Minimum Inhibitory Concentration, Ec
[16] = pH 6.8, read-out: Minimum Inhibitory Concentration, Pv
[17] = pH 8.2, read-out: Minimum Inhibitory Concentration, Pv
[18] = 72 h, pH 5.5, read-out: Minimum Inhibitory Concentration, Tv
[19] = pH 6.8, read-out: Minimum Inhibitory Concentration, PRD
[20] = pH 8.2, read-out: Minimum Inhibitory Concentration, PRD
[21] = 48 h, pH 8.2, read-out: Minimum Inhibitory Concentration, Kp
[22] = pH 6.8, nutrient agar, 30° C., 48 hours, read-out: Minimum Inhibitory Concentration, Kp
[23] = pH 5.5, malt yeast agar, 30° C., 72 hours for fungi, read-out: Minimum Inhibitory Concentration, PC
[24] = 72 h, pH 5.5, read-out: Minimum Inhibitory Concentration, Fo
[25] = pH 6.8, read-out: Minimum Inhibitory Concentration, SC
[26] = pH 8.2, read-out: Minimum Inhibitory Concentration, SC
[27] = 48 h, pH 8.2, read-out: Minimum Inhibitory Concentration, Sa
[28] = pH 6.8, nutrient agar, 30° C., 48 hours, read-out: Minimum Inhibitory Concentration, Sa
[29] = 72 h, pH 5.5, read-out: Minimum Inhibitory Concentration, An
[30] = 48 h, pH 6.8, read-out: Minimum Inhibitory Concentration, Bs

Structure (SMILES) | MIC (Bacillus subtilis (Bs); [10]) | MIC [1, 11] | MIC [1, 12] | MIC (Candida albicans (Ca); [13]) | MIC (Escherichia coli (Ec); [14]) | MIC (Escherichia coli (Ec); [15]) | MIC ([2]; pH 6.8, nutrient agar) | MIC ([2]; pH 8.2, nutrient agar) | MIC (Proteus vulgaris (Pv); [16]) | MIC (Proteus vulgaris (Pv); [17]) | MIC [3, 19] | MIC [3, 20] | MIC [4, 21] | MIC [4, 22] | MIC [5] | MIC [6] | MIC [8, 25] | MIC [8, 26] | MIC [9, 27] | MIC [9, 28] | further results
COc1cccc(-c2nsnc2SCSC#N)c1 [Example XXII, 4-(3-Methoxyphenyl)-3-thiocyanatomethylthio-1,2,5-thiadiazole] | 25 µg/mL (≈ 84.6 µM) | 500 µg/mL (≈ 1690 µM) | > 500 µg/mL | 250 µg/mL (≈ 846 µM) | 500 µg/mL (≈ 1690 µM) | 500 µg/mL (≈ 1690 µM) | 500 µg/mL (≈ 1690 µM) | > 500 µg/mL | 500 µg/mL (≈ 1690 µM) | > 500 µg/mL | 500 µg/mL (≈ 1690 µM) | > 500 µg/mL | > 500 µg/mL | 500 µg/mL (≈ 1690 µM) | 9 µg/mL (≈ 30.5 µM) | 9 µg/mL (≈ 30.5 µM) | 500 µg/mL (≈ 1690 µM) | > 500 µg/mL | 500 µg/mL (≈ 1690 µM) | 500 µg/mL (≈ 1690 µM) | MIC (Bacillus subtilis (Bs); pH 6.8, nutrient agar, 30° C., 48 hours, read-out: Minimum Inhibitory Concentration, Bs): 9 µg/mL (≈ 30.5 µM); MIC (Trichoderma viride (Tv); [18]): 250 µg/mL (≈ 846 µM); MIC [7, 23]: 25 µg/mL (≈ 84.6 µM); MIC (Fusarium oxysporum (Fo); [24]): 50 µg/mL (≈ 169 µM); MIC (Aspergillus niger (An); [29]): 50 µg/mL (≈ 169 µM)
COc1ccc(-c2nsnc2SCSC#N)cc1 [Example XXIII, 4-(4-Methoxyphenyl)-3-thiocyanatomethylthio-1,2,5-thiadiazole] | 250 µg/mL (≈ 846 µM) | > 500 µg/mL | 500 µg/mL (≈ 1690 µM) | 250 µg/mL (≈ 846 µM) | > 500 µg/mL | > 500 µg/mL | > 500 µg/mL | > 500 µg/mL | > 500 µg/mL | > 500 µg/mL | > 500 µg/mL | > 500 µg/mL | > 500 µg/mL | > 500 µg/mL | 9 µg/mL (≈ 30.5 µM) | 9 µg/mL (≈ 30.5 µM) | > 500 µg/mL | > 500 µg/mL | > 500 µg/mL | > 500 µg/mL | MIC (Bacillus subtilis (Bs); [30]): 500 µg/mL (≈ 1690 µM); MIC (Trichoderma viride (Tv); [18]): 250 µg/mL (≈ 846 µM); MIC ([7]; 72 h, pH 5.5, read-out: Minimum Inhibitory Concentration, PC): 50 µg/mL (≈ 169 µM); MIC (Fusarium oxysporum (Fo); [24]): 100 µg/mL (≈ 339 µM); MIC (Aspergillus niger (An); [29]): 25 µg/mL (≈ 84.6 µM)
CSc1ccc(-c2nsnc2SCSC#N)cc1 [Example XXIV, 4-(4-Methylthiophenyl)-3-thiocyanatomethylthio-1,2,5-thiadiazole] | 500 µg/mL (≈ 1610 µM) | 500 µg/mL (≈ 1610 µM) | > 500 µg/mL | – | 500 µg/mL (≈ 1610 µM) | – | 500 µg/mL (≈ 1610 µM) | > 500 µg/mL | 500 µg/mL (≈ 1610 µM) | > 500 µg/mL | 500 µg/mL (≈ 1610 µM) | > 500 µg/mL | > 500 µg/mL | 500 µg/mL (≈ 1610 µM) | 500 µg/mL (≈ 1610 µM) | 500 µg/mL (≈ 1610 µM) | 500 µg/mL (≈ 1610 µM) | > 500 µg/mL | > 500 µg/mL | 500 µg/mL (≈ 1610 µM) | MIC (Bacillus subtilis (Bs); [30]): 500 µg/mL (≈ 1610 µM); MIC (Candida albicans (Ca); pH 5.5, malt yeast agar, 30° C., 48 hours for yeast, read-out: Minimum Inhibitory Concentration, Ca): 500 µg/mL (≈ 1610 µM); MIC (Escherichia coli (Ec); pH 8.2, nutrient agar, 30° C., 48 hours, read-out: Minimum Inhibitory Concentration, Ec): 250 µg/mL (≈ 803 µM); MIC (Trichoderma viride (Tv); pH 5.5, malt yeast agar, 30° C., 72 hours for fungi, read-out: Minimum Inhibitory Concentration, Tv): 500 µg/mL (≈ 1610 µM); MIC [7, 23]: 500 µg/mL (≈ 1610 µM); MIC (Fusarium oxysporum (Fo); pH 5.5, malt yeast agar, 30° C., 72 hours for fungi, read-out: Minimum Inhibitory Concentration, Fo): 500 µg/mL (≈ 1610 µM); MIC (Aspergillus niger (An); pH 5.5, malt yeast agar, 30° C., 72 hours for fungi, read-out: Minimum Inhibitory Concentration, An): 500 µg/mL (≈ 1610 µM)
